Measured values from PubChem BioAssay (NCI).
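In this assay, cells in 96-well plates receive the compound at five concentrations for 48 hours. Endpoints are linearly interpolated between the surrounding concentrations. GI50 marks 50% less growth. TGI: total growth inhibition.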

Columns and labels:
Assay in all cases: NCI-60 cell line screen, 48 h
[1] = system: 786-0 renal
[2] = system: HT29 colon
[3] = system: K-562 leukemia
[4] = system: MDA-MB-435
[5] = system: MOLT-4 leukemia
[6] = system: OVCAR-4 ovarian
[7] = system: SNB-75 CNS
[8] = system: SR leukemia
[9] = system: SW-620 colon
[10] = system: UO-31 renal

Structure (SMILES) | GI50 [1] | TGI [1] | GI50 [2] | TGI [2] | GI50 [3] | TGI [3] | GI50 [4] | TGI [4] | GI50 [5] | TGI [5] | GI50 [6] | TGI [6] | GI50 [7] | TGI [7] | GI50 [8] | TGI [8] | GI50 [9] | TGI [9] | GI50 [10] | TGI [10]
O=C(Nc1cccc(C(F)(F)F)c1)c1ccc(NC2=C(Cl)C(=O)N(Cc3ccc(Cl)cc3Cl)C2=O)cc1 | 3.96 µM | 14.3 µM | 3.82 µM | 36.8 µM | 1.83 µM | 4.49 µM | 16.1 µM | 32.4 µM | 1.31 µM | 6.8 µM | 11.1 µM | 42.6 µM | 14.6 µM | 33.3 µM | 1.83 µM | 3.93 µM | 2.12 µM | 6.05 µM | – | –
O=C(NC[C@H](O)CN1CCc2ccccc2C1)c1cc(NC2COC2)ncn1 | 12.6 µM | 41.9 µM | 20.8 µM | > 100 µM | 20.3 µM | > 100 µM | 12.9 µM | 94.1 µM | 15.1 µM | 49.3 µM | 16 µM | > 100 µM | 12.5 µM | 64.5 µM | 9.29 µM | 50.9 µM | 11 µM | 61.7 µM | 11.8 µM | 97.1 µM
O=C(/C=C/c1ccc[nH]1)c1ccc(-n2ccc(C(F)(F)F)n2)cc1 | 6.17 µM | > 100 µM | > 100 µM | > 100 µM | 38.6 µM | > 100 µM | > 100 µM | > 100 µM | 13.8 µM | > 100 µM | 99.1 µM | > 100 µM | 0.877 µM | 4.37 µM | 9.15 µM | > 100 µM | > 100 µM | > 100 µM | 0.56 µM | 2.4 µM
CN(C)CC[C@H](CSc1ccccc1)Nc1ccc(S(=O)(=O)NC(=O)c2ccc(N3CCN(Cc4ccccc4-c4ccc(Cl)cc4)CC3)cc2)cc1[N+](=O)[O-] | 3.6 µM | 15.1 µM | 2.17 µM | 5.02 µM | 5.03 µM | > 100 µM | 2.47 µM | > 34.6 µM | 0.392 µM | 2.64 µM | 3.04 µM | > 29.6 µM | 6.09 µM | > 100 µM | 3.85 µM | 40.2 µM | 4.02 µM | > 61.1 µM | 3.53 µM | 27.6 µM
CCOc1ccc(/C=C2\N=C(c3ccc([N+](=O)[O-])cc3)OC2=O)cc1 | – | > 100 µM | – | > 100 µM | – | > 100 µM | – | > 100 µM | – | > 100 µM | – | > 100 µM | – | > 100 µM | – | > 100 µM | – | > 100 µM | – | –
O=C(Cc1ccc(F)c(Cl)c1)Nc1cc(C2(C(F)(F)F)CC2)nn1CC1CCCCC1 | 4.34 µM | > 15 µM | 3.96 µM | > 15 µM | 4.28 µM | > 15 µM | 3.85 µM | 11.7 µM | 3.37 µM | 9.57 µM | 3.27 µM | > 15 µM | 0.808 µM | 5.99 µM | 3.73 µM | 11.4 µM | 3.92 µM | 14.4 µM | 2.9 µM | 9.65 µM
CCOC(=O)Nc1cc2c(c(N)n1)N=C(c1ccccc1)CO2 | 1.21 µM | 20.9 µM | 0.047 µM | 10.9 µM | 0.0336 µM | 34 µM | 0.0169 µM | 0.0399 µM | 0.105 µM | > 40.7 µM | 2.46 µM | 36.4 µM | – | – | 0.035 µM | 10.1 µM | 0.0496 µM | 98.2 µM | 0.459 µM | 6.53 µM
O=c1oc2ccc(-c3ccc(F)cc3F)cc2c(=O)n1-c1cccc(C(F)(F)F)c1 | 2.47 µM | 6.5 µM | 3.24 µM | 11.7 µM | 1.2 µM | 18.2 µM | 1.44 µM | 8.04 µM | 2.15 µM | 4.97 µM | 1.67 µM | 13.6 µM | 1.33 µM | 3.78 µM | 1.31 µM | 6.25 µM | 2.64 µM | 12.8 µM | 1.38 µM | 8.22 µM
COc1ccc(C(=O)Nc2ccc(O)c(=O)cc2)cc1 | – | > 100 µM | – | 44.1 µM | – | 77.3 µM | – | > 100 µM | – | – | – | – | – | – | – | 31.4 µM | – | > 100 µM | – | 47 µM
COc1cc(Cl)cc(-c2nn(-c3cccc(NC(=O)c4ccc(N5CCOCC5)c(C(F)(F)F)c4)c3)cc2-c2ccncc2)c1 | 3.23 µM | 29.8 µM | 4.09 µM | 38 µM | 3.1 µM | > 100 µM | 43.6 µM | > 100 µM | 5.49 µM | > 100 µM | 39.7 µM | > 100 µM | 2.08 µM | > 100 µM | 3.06 µM | > 100 µM | 29.8 µM | > 100 µM | 4.5 µM | > 100 µM
CC1CC2CCCC(O)=C2C(=O)O1 (configuration not stated) | – | > 100 µM | – | > 100 µM | – | > 100 µM | – | > 100 µM | – | > 100 µM | – | > 100 µM | – | > 100 µM | – | > 100 µM | – | > 100 µM | – | > 100 µM
Cc1nnc(Nc2ccc(NC(=O)Nc3ccc(Cl)cc3)cc2)c2ccccc12 | 1.71 µM | 3.34 µM | 1.78 µM | 3.67 µM | 2.2 µM | 4.67 µM | 1.73 µM | 3.43 µM | 2.36 µM | 6 µM | 2.79 µM | 8.36 µM | 1.91 µM | 5.49 µM | 2.56 µM | 9.55 µM | 2.15 µM | 4.76 µM | 2.14 µM | 6.01 µM
Cc1cc(N[C@@H]2CCC[C@H](Nc3ccnc4cc(Cl)ccc34)C2)nc(N2CCCCCC2)n1 | 1.47 µM | 2.9 µM | 1.05 µM | 2.98 µM | 0.359 µM | 1.69 µM | 1.79 µM | 3.33 µM | 1.6 µM | 5.73 µM | 1.72 µM | 5.04 µM | 1.43 µM | 3.14 µM | 0.228 µM | 0.847 µM | 1.52 µM | 3.28 µM | 1.13 µM | 2.4 µM
N=c1c2c(-c3ccccc3)c(-c3ccccc3)n(Cc3ccccc3)c2ncn1C1CCC(O)CC1 (configuration not stated) | 2.12 µM | 17.3 µM | 0.0772 µM | 2.49 µM | 0.0976 µM | 2.64 µM | 0.346 µM | 4.89 µM | 0.075 µM | 4.83 µM | 1.43 µM | 13.1 µM | 0.92 µM | 8.85 µM | 0.034 µM | 2.2 µM | 0.0497 µM | 12.9 µM | 0.258 µM | 1.65 µM
